Assay results taken from patent US20090312265A1, “NOVEL ANTIMICROBIAL PEPTIDES AND USE THEREOF” (priority 2006, published 2009).
No end group written: not given here.

Key:
[1] = Liposome leakage assay (carboxyfluorescein release), PC liposomes; conditions: scale: Triton X100 = 100% release; for PC − NaCl (CF release, liposome leakage): 10 mM Tris pH 7.4 without NaCl; for PC + NaCl (CF release, liposome leakage): 10 mM Tris pH 7.4 with additional 150 mM NaCl
Experimental: (§1) Dry lipid films were prepared by dissolving either dioleoylphosphatidylcholine (Avanti Polar Lipids, Alabaster, Ala.) (60 mol %) and cholesterol (Sigma, St Louis, Mo.) (40 mol %), or dioleoylphosphatidylcholine (30 mol %), dioleoylphosphatidic acid (Avanti Polar Lipids, Alabaster, Ala.) (30 mol %) and cholesterol (40 mol %) in chloroform, and then removing the solvent by evaporation under vacuum overnight. Subsequently, buffer solution containing 10 mM Tris, pH 7.4, either with or without additional 150 mM NaCl, was added together with 0.1 M carboxyfluorescein (CF) (Sigma, St Louis, Mo.). After hydration, the lipid mixture was subjected to eight freeze-thaw cycles consisting of freezing in liquid nitrogen and heating to 60° C. Unilamellar liposomes with a diameter of about 130 nm (as found with cryo-TEM; results not shown) were generated by multiple extrusions through polycarbonate filters (pore size 100 nm) mounted in a LipoFast miniextruder (Avestin, Ottawa, Canada). Untrapped carboxyfluorescein was then removed by filtration through two subsequent Sephadex G-50 columns with the relevant Tris buffer as eluent. Both extrusion and filtration was performed at 22° C. In the liposome leakage assay, the well lmown self-quenching of CF was used. Thus, at 100 mM CF is self-quenched, and the recorded fluorescence intensity from liposomes with entrapped CF is low. […] The CF release was determined by monitoring the emitted fluorescence at 520 nm from a liposome dispersion (10 mM lipid in 10 mM Tris pH 7.4). An absolute leakage scale is obtained by disrupting the liposomes at the end of the experiment through addition of 0.8 mM Triton X100 (Sigma, St Louis, Mo.), thereby causing 100% release and dequenching of CF. A SPEX-fluorolog 1650 0.22-m double spectrometer (SPEX Industries, Edison, N.J.) was used for the liposome leakage assay (see Table 4).

[2] = Liposome leakage assay (carboxyfluorescein release), PA liposomes; conditions: scale: Triton X100 = 100% release; for PA − NaCl (CF release, liposome leakage): 10 mM Tris pH 7.4 without NaCl; for PA + NaCl (CF release, liposome leakage): 10 mM Tris pH 7.4 with additional 150 mM NaCl
Experimental: as §1

[3] = CD-spectroscopy, helix content; format: physicochemical; conditions: 10 mM Tris, 10 μM peptide, 37° C.; for Helix content, PA: pH 7.4, PA liposome dispersion (100 μM lipid); for Helix content, PC: pH 7.4, PC liposome dispersion (100 μM lipid); for Helix content, Buffer: pH 7.4, buffer
Experimental: The CD spectra of the peptides in solution were measured on a Jasco J-810 Spectropolarimeter (Jasco, U.K.). The measurements were performed at 37° C. in a 10 mm quartz cuvet under stirring and the peptide concentration was 10 μM. The effect of on peptide secondary structure of liposomes at a lipid concentration of 100 μM was monitired in the range 200-250 nm. The only peptide conformations observed under the conditions investigated were α-helix and random coil. The fraction of the peptide in α-helical conformation, Xα, is calculated from
where A is the recorded CD signal at 225 nm, and Aα and Ac are the CD signal at 225 nm for a reference peptide in 100% α-helix and 100% random coil conformation, respectively. 100% α-helix and 100% random coil references were obtained from 0.133 mM (monomer concentration) poly-L-lysine in 0.1 M NaOH and 0.1 M HCl, respectively. To account for the instrumental differences between measurements the background value (detected at 250 nm, where no peptide signal is present) was subtracted. Signals from the bulk solution were also corrected for (see Table 5).

bacteria = assay: Antibacterial activity in vitro; format: cell-based
Experimental: Radial diffusion assays (RDA) were performed essentially as described earlier (Lehrer, R. I., Rosenman, M., Harwig, S. S., Jackson, R. & Eisenhauer, P. (1991) Ultrasensitive assays for endogenous antimicrobial polypeptides, J Immunol Methods. 137, 167-73.).
Briefly, bacteria (E. coli, P. aeruginosa, S. aureus, B. subtilis) or fungi (C. albicans) were grown to mid-logarithmic phase in 10 ml of full-strength (3% w/v) trypticase soy broth (TSB) (Becton-Dickinson, Cockeysville, Md.). The microorganisms were washed once with 10 mM Tris, pH 7.4. 4×10^6 bacterial cfu or 1×10^5 fungal cfu was added to 5 ml of the underlay agarose gel, consisting of 0.03% (w/v) TSB, 1% (w/v) low-electroendoosmosistype (Low-EEO) agarose (Sigma, St Louise Mo.) and a final concentration of 0.02% (v/v) Tween 20 (Sigma). The underlay was poured into a Ø 85 mm petri dish. After agarose solidified, 4 mm-diameter wells were punched and 6 μl of test sample was added to each well. Plates were incubated at 37° C. for 3 hours to allow diffusion of the peptides. The underlay gel was then covered with 5 ml of molten overlay (6% TSB and 1% Low-EEO agarose in dH2O). Antimicrobial activity of a peptide is visualized as a clear zone around each well after 18-24 hours of incubation at 37° C. for bacteria and 28° C. for Candida albicans.

Erythrocytes = format: cell-based; conditions: 1 h
Experimental: EDTA-blood was centrifuged at 800 g for 10 min, whereafter plasma and buffy coat were removed. The erythrocytes were washed three times and resuspended in 5% PBS, pH 7.4. The cells were then incubated with end-over-end rotation for 1 h at 37° C. in the presence of peptides (3-60 μM). 2% Triton X-100 (Sigma-Aldrich) served as positive control. The samples were then centrifuged at 800 g for 10 min. The absorbance of hemoglobin release was measured at λ 540 nm and is in the plot expressed as % of TritonX-100 induced hemolysis (FIG. 5 and table 6). The peptides in table 3A (SEQ ID No. 12-18) were evaluated as described above.

[4] = test system: Gram-positive and Gram-negative bacterial, fungal, and viral pathogens; conditions: Niyonsaba and Ogawa 2005; cited from earlier work

Row | Sequence | PC − NaCl (CF release, liposome leakage) [1] | PA − NaCl (CF release, liposome leakage) [2] | PC + NaCl (CF release, liposome leakage) [1] | Helix content, PA [3] [%] | Helix content, PC [3] [%] | Helix content, Buffer [3] [%] | antibacterial activity in vitro (bacteria) | Erythrocytes Hemolysis (%) Mean (Erythrocytes) [%] | PA + NaCl (CF release, liposome leakage) [2] | antimicrobial activity spectrum [4]
1 | LNGKGAPRRGQKTRRKNTSAH (listed as Homo sapiens) [LNG21] | 12 ± 2 | 9 ± 5 |  |  |  |  |  |  |  | 
2 | PKRKKKGGKNGKNRRNRKKKN (listed as Homo sapiens) [PKR21] | 38 ± 3 | 13 ± 8 | 6 ± 1 | 9 ± 4 | 9 ± 3 | 10 ± 2 | shows antibacterial activity in vitro |  |  | 
3 | KRKRKGKGLGKKKDPCLRKF [KRK20: B] |  |  |  |  |  |  |  | 2.26 |  | 
4 | GKRKKKGKGLGKKRDPCLRKYK (listed as Homo sapiens) [GKR22] | 72 ± 8 | 42 ± 7 | 4 ± 1 | 10 ± 3 | 5 ± 2 | 8 ± 2 | shows antibacterial activity in vitro |  | 2 ± 1 | 
5 | RVRRPPKGKHRKFHTHDKTA (RVRRPPKGKHRKFKHTHDKTA; listed as Homo sapiens) [RVR21] | 55 ± 2 | 18 ± 8 | 6 ± 1 | 6 ± 3 | 11 ± 4 | 8 ± 4 | show antibacterial activity in vitro |  | 8 ± 2 | 
6 | KRKKKGKGLGKKRDPCLRKY [KRK20: A] |  |  |  |  |  |  |  | 2.25 |  | 
7 | KRKKKGKGLGKKRWPCLRKY [KRK20: G] |  |  |  |  |  |  |  | 2.29 |  | 
8 | LKRTGQYKLGSKTGPGQKAIL (listed as Homo sapiens) [LKR21, FGF2_HUMAN aa 127-147] | 2 ± 1 | 3 ± 1 |  |  |  |  |  |  |  | 
9 | LKKNGSCKRGPRTHYGQKAIL (human growth factor) [LKK21, FGF1_HUMAN aa 126-146] | 26 ± 3 | 4 ± 2 | 6 ± 2 | 10 ± 4 | 13 ± 5 | 11 ± 2 | shows antibacterial activity in vitro |  |  | 
10 | LNQKGIPVRGKKTKKEQKTAH (listed as Homo sapiens) [LNQ21, FGF7_HUMAN aa 167-187] | 2 ± 1 | 10 ± 1 |  |  |  |  |  |  |  | 
11 | LLGDFFRKSKEKIGKEFKRIVQRIKDFLRNLVPRTES [LL-37, reference compound] | 100 ± 10 | 100 ± 10 | 73 ± 7 | 100 ± 10 | 100 ± 10 | 60 ± 10 |  |  | 57 ± 6 | broad-spectrum antimicrobial activity
12 | GRPRESGKKRKRKRKLKPT (listed as Homo sapiens) [GRP19] | 30 ± 12 | 20 ± 2 | 4 ± 1 | 8 ± 3 | 8 ± 4 | 9 ± 2 | show antibacterial activity in vitro |  | 5 ± 1 | 
13 | LRPVQVRKIEIVRRKPIFKKATVT (LRPVQVRKIEIVRKKPIFKKATVT; listed as Homo sapiens) [LRP24] | 33 ± 11 | 44 ± 10 | 4 ± 4 | 15 ± 3 | 10 ± 4 | 13 ± 3 | show antibacterial activity in vitro |  | 6 ± 3 | 
14 | QRAKTPQTRVTIRTVRVRRPP (listed as Homo sapiens) [QRA21] | 10 ± 1 | 0 ± 1 |  |  |  |  | show antibacterial activity in vitro |  |  | 
15 | KRKKKGKGWGKKRDPCLRKY [KRK20: D] |  |  |  |  |  |  |  | 2.56 |  | 
16 | KRKKKGKGLGKKRLPCLRKY [KRK20: C] |  |  |  |  |  |  |  | 2.31 |  | 
17 | LKIKTKKVNTADQCANRCTRNKGL (listed as Homo sapiens) [LKI24] | 54 ± 4 | 25 ± 4 | 6 ± 3 | 14 ± 4 | 9 ± 3 | 13 ± 3 |  |  | 2 ± 2 | 
18 | KRKKKGKGWGKKRWPCLRKY [KRK20: F] |  |  |  |  |  |  |  | 3.14 |  | 
19 | KRKKKGKGWGKKRLPCLRKY [KRK20: E] |  |  |  |  |  |  |  | 2.73 |  | 
